Among the data in patent publication US9765092B2, “Tricyclic piperidine compounds” (ACTELION PHARMACEUTICALS LTD, priority 2013, dated 2017) are IC50 values, retold here.

pIC50: −log10 of the molar value.

The term pIC50 denotes the IC50 on a negative log10 scale, so that one unit is a factor of ten.

For this test, the target named is human TPH1 (Homo sapiens (Human), UniProt P17752). Description: Biochemical in vitro assay using fluorescence readout (TPH1 inhibition). The source says:
Biochemical In Vitro Assay Using Fluorescence Readout
To generate the enzyme, full length human TPH1 is cloned into the plasmid pET20b(+) (Novagen) and expressed in E. coli. The bacterial cells are ruptured by sonication on ice and the lysate is cleared by centrifugation. The resulting protein in the pellet is re-extracted and TPH1 is purified from the obtained lysate by affinity chromatography using a pterin cosubstrate analog immobilized to the resin of the column. The protein is further purified by size exclusion chromatography to remove protein aggregates. The activity of TPH1 is determined by using a fluorescence assay. The enzyme activity assay is carried out at 15° C. with atmosphere oxygen for the duration of 60 minutes in a volume of 64 μl. The reaction is carried out in a 0.1 M Tris-HCl buffer, adjusted to pH 7.6, containing 1 mM DTT, 0.2 mg/mL catalase, 100 μM (±)-6-methyl-5,6,7,8-tetrahydropterine dihydrochloride, 40 μM L-tryptophan, and 40-80 nM of TPH1. The reaction is started by bringing together L-tryptophan with all the other reaction substituents and stopped by quenching with perchloric acid (HClO4). The amount of 5-hydroxy-L-tryptophan produced during the enzymatic reaction is determined by fluorescence readout. Fluorescence, as determined at 540 nm when excited at 300 nm wavelength, increases proportionally to the 5-hydroxy-L-tryptophan formed. Compounds are prepared as 10 mM stock solution in DMSO, then diluted in 384-well plates using DMSO followed by a transfer of the dilutions into the assay plate. Fluorescence is measured for each well and the fluorescence at 540 nm wavelength is compared to the fluorescence of the vehicle in place of compound. Inhibitory activities of example compounds with respect to the TPH1 protein are determined by calculating the IC50 value (the concentration of compound needed to inhibit 50% of the enzyme activity). The calculated IC50 values may fluctuate depending on the daily biochemical assay performance. Fluctuations of this kind are known to those skilled in the art.

[1] abbreviates: human TPH1, fluorescence readout.

human TPH1, sequence (P17752 whole entry): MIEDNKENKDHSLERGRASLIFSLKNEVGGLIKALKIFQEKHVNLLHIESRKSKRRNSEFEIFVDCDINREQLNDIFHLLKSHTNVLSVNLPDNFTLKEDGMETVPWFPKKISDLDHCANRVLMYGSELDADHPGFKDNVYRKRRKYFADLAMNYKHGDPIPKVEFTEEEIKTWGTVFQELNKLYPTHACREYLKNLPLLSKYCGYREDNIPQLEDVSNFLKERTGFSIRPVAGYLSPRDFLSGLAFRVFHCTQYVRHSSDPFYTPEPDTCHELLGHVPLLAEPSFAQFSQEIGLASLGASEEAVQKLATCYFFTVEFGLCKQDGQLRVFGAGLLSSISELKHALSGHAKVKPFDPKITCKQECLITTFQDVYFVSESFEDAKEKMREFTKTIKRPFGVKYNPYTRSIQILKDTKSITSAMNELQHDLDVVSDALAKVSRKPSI

As to `CCc1nc(NS(C)(=O)=O)ccc1OCC(=O)N1CCc2nc3sc(C)nn3c2[C@@H]1c1ncc(C)cc1F` [Example 1.31.16, (R)-N-(6-ethyl-5-(2-(5-(3-fluoro-5-methylpyridin-2-yl)-2-methyl-7,8-dihydro-[1,3,4]thiadiazolo[2′,3′:2,3]imidazo[4,5-c]pyridin-6(5H)-yl)-2-oxoethoxy)pyridin-2-yl)methanesulfonamide], the negative logarithm of the IC50 (pIC50) under setting [1] was 7.74. Still for that read-out and setting: the result for `Cc1nn2c3c(nc2s1)CCN(C(=O)COc1ccc[n+]([O-])c1Cl)C3c1ccc(C2CC2)cc1F` (stereo not drawn) [Example 1.6.19, 2-chloro-3-(2-(5-(4-cyclopropyl-2-fluorophenyl)-2-methyl-7,8-dihydro-[1,3,4]thiadiazolo[2′,3′:2,3]imidazo[4,5-c]pyridin-6(5H)-yl)-2-oxoethoxy)pyridine-1-oxide] reads 6.60. The same measure, in the same setting: then `Cc1nn2c3c(nc2s1)CCN(C(=O)COc1ccc(N2CCOCC2)nc1Cl)C3c1ncc(Cl)cc1F` (stereo not drawn) [Example 1.33.1, 1-(5-(5-chloro-3-fluoropyridin-2-yl)-2-methyl-7,8-dihydro[1,3,4]thiadiazolo[2′,3′:2,3]imidazo[4,5-c]pyridin-6(5H)-yl)-2-((2-chloro-6-morpholinopyridin-3-yl)oxy)ethanone], with 8.70.

`Cc1ccc(C2c3c(nc4sc(C)nn34)CCN2C(=O)COc2ccc(-c3ncco3)nc2Cl)c(F)c1` (stereo not drawn) [Example 1.53.1, 2-((2-chloro-6-(oxazol-2-yl)pyridin-3-yl)oxy)-1-(5-(2-fluoro-4-methylphenyl)-2-methyl-7,8-dihydro-[1,3,4]thiadiazolo[2′,3′:2,3]imidazo[4,5-c]pyridin-6(5H)-yl)ethanone]: the pIC50 under setting [1] is 8.05.

`Cc1nn2c3c(nc2s1)CCN(C(=O)COc1ccc(N2CCOCC2)nc1Cl)C3c1nc(CN(C)C)cs1` (stereo not drawn) [Example 1.17.1, 2-((2-chloro-6-morpholinopyridin-3-yl)oxy)-1-(5-(4-((dimethylamino)methyl)thiazol-2-yl)-2-methyl-7,8-dihydro-[1,3,4]thiadiazolo[2′,3′:2,3]imidazo[4,5-c]pyridin-6(5H)-yl)ethanone]: under setting [1], the pIC50 was 7.21.

`Cc1cc(Cl)ccc1OCC(=O)N1CCc2nc3sccn3c2C1c1nc2ccccc2s1` (stereo not drawn) [Example 6.12.4, 1-(5-(benzo[d]thiazol-2-yl)-7,8-dihydrothiazolo-[2′,3′:2,3]imidazo[4,5-c]pyridin-6(5H)-yl)-2-(4-chloro-2-methylphenoxy)ethanone]: the negative logarithm of the IC50 (pIC50) under setting [1] is 7.44. As for `Cc1nn2c3c(nc2s1)CCN(C(=O)COc1ccc(NS(C)(=O)=O)nc1Cl)C3c1cnc(N(C)C)s1` (stereo not drawn) [Example 1.22.6, N-(6-Chloro-5-(2-(5-(2-(dimethylamino)thiazol-5-yl)-2-methyl-7,8-dihydro-[1,3,4]thia-diazolo[2′,3′:2,3]imidazo[4,5-c]pyridin-6(5H)-yl)-2-oxoethoxy)pyridin-2-yl)methane-sulfonamide], the negative logarithm of the IC50 (pIC50) (full length human TPH1, 40 μM L-tryptophan, 15° C., 60 minutes, fluorescence at 540 nm, mean if determined several times) is 7.41. With `O=C(COc1ccc(CN2CCOCC2)nc1Cl)N1CCc2nc3sccn3c2C1c1cccnc1F` (stereo not drawn) [Example 6.2.7, ((2-chloro-6-(morpholinomethyl)pyridin-3-yl)oxy)-1-(5-(2-fluoropyridin-3-yl)-7,8-dihydrothiazolo[2′,3′:2,3]-imidazo[4,5-c]pyridin-6(5H)-yl)ethanone], the pIC50 under setting [1] was 6.63. The same measure, in the same setting: the result for `CCc1nc(NS(C)(=O)=O)ncc1OCC(=O)N1CCc2nc3sc(C)nn3c2C1c1sc(C)nc1C` (stereo not drawn) [Example 1.68.9, N-(5-(2-(5-(2,4-dimethylthiazol-5-yl)-2-methyl-7,8-dihydro-[1,3,4]thiadiazolo[2′,3′:2,3]imidazo[4,5-c]pyridin-6(5H)-yl)-2-oxoethoxy)-4-ethylpyrimidin-2-yl)methanesulfonamide] reads 7.18; that for `O=C(COc1ccc(N2CCOCC2)cc1Cl)N1CC=C2N=C3SC=CN3C2[C@H]1c1ccc(Cl)cc1F` (stereo partly drawn) [Example 6.4.2, 1-((5R)-5-(4-chloro-2-fluorophenyl)-4a,5-dihydro-thiazolo[2′,3′:2,3]imidazo[4,5-c]pyridin-6(7H)-yl)-2-(2-chloro-4-morpholinophenoxy)ethanone], 8.40; that for `CNC(=O)c1ccc(OCC(=O)N2CCc3nc4sc(C)nn4c3C2c2sc(C(=O)N(C)C)cc2F)c(Cl)n1` (stereo not drawn) [Example 1.24.10, 6-chloro-5-(2-(5-(5-(dimethylcarbamoyl)-3-fluoro-thiophen-2-yl)-2-methyl-7,8-dihydro-[1,3,4]thiadiazolo[2′,3′:2,3]imidazo[4,5-c]pyridin-6(5H)-yl)-2-oxoethoxy)-N-methylpicolinamide], 7.70. Still for that read-out and setting: then `Cc1cc(Cl)ccc1OCC(=O)N1CCc2nc3sccn3c2C1c1c(C)noc1C` (stereo not drawn) [Example 6.5.4, 2-(4-chloro-2-methylphenoxy)-1-(5-(3,5-dimethylisoxazol-4-yl)-7,8-dihydrothiazolo[2′,3′:2,3]imidazo[4,5-c]-pyridin-6(5H)-yl)ethanone], with 7.57; and `Cc1nn2c3c(nc2s1)CCN(C(=O)COc1ccc(C(=O)NC2CC2)nc1Cl)C3c1ccc(OC(F)(F)F)cc1F` (stereo not drawn) [Example 1.77.2, 6-chloro-N-cyclopropyl-5-(2-(5-(2-fluoro-4-(trifluoromethoxy)phenyl)-2-methyl-7,8-dihydro-[1,3,4]thiadiazolo[2′,3′:2,3]imidazo[4,5-c]pyridin-6(5H)-yl)-2-oxoethoxy)picolinamide], with 7.55. Still for that read-out and setting: then `O=C(COc1cccnc1Cl)N1CCc2nc3sccn3c2C1c1nc2ccccc2s1` (stereo not drawn) [Example 6.12.6, 1-(5-(benzo[d]thiazol-2-yl)-7,8-dihydrothiazolo-[2′,3′:2,3]imidazo[4,5-c]pyridin-6(5H)-yl)-2-((2-chloropyridin-3-yl)oxy)ethanone], with 7.00; and `COc1ccc(C2c3c(nc4sccn34)CCN2C(=O)COc2ccc3ccncc3c2)c(F)c1` (stereo not drawn) [Example 6.3.3, 1-(5-(2-fluoro-4-methoxyphenyl)-7,8-dihydrothiazolo[2′,3′:2,3]imidazo[4,5-c]pyridin-6(5H)-yl)-2-(isoquinolin-7-yloxy)ethanone], with 8.40; and `Cc1nn2c3c(nc2s1)CCN(C(=O)COc1ccc(C#N)nc1Cl)C3c1ccc(Cl)nc1F` (stereo not drawn) [Example 1.16.5, 6-chloro-5-(2-(5-(6-chloro-2-fluoropyridin-3-yl)-2-methyl-7,8-dihydro-[1,3,4]thiadiazolo[2′,3′:2,3]imidazo[4,5-c]pyridin-6(5H)-yl)-2-oxoethoxy)picolinonitrile], with 7.46. For `Cc1nc(C)c(C2c3c(nc4sc(C)nn34)CCN2C(=O)COc2ccc(C(=O)N(C)C3CC3)nc2Cl)s1` (stereo not drawn) [Example 1.68.4, 6-chloro-N-cyclopropyl-5-(2-(5-(2,4-dimethylthiazol-5-yl)-2-methyl-7,8-dihydro-[1,3,4]thiadiazolo[2′,3′:2,3]imidazo[4,5-c]pyridin-6(5H)-yl)-2-oxoethoxy)-N-methylpicolinamide], the negative logarithm of the IC50 (pIC50) under setting [1] is 7.72. Same read-out and setting: then `CCc1nc(C)ccc1OCC(=O)N1CCc2nc3sc(C)nn3c2C1c1cnc(C2CC2)nc1` (stereo not drawn) [Example 1.10.1, 1-(5-(2-cyclopropylpyrimidin-5-yl)-2-methyl-7,8-dihydro-[1,3,4]thiadiazolo[2′,3′:2,3]imidazo[4,5-c]pyridin-6(5H)-yl)-2-((2-ethyl-6-methylpyridin-3-yl)oxy)ethanone], with 6.73.
